{"source": "patent US20060062842A1", "about": "“Method of administering a compound to multi-drug resistant cells” (Alza Corporation, priority 1998, published 2006)", "key": {"Normal Human Fibroblasts": {"system": "Normal Human Fibroblasts", "assay": "Folic acid binding to cell lines", "settings": "NHF; 30 min at 37° C.", "experimental": "(§1) These cell lines and their capacity to bind folic acid were determine as set forth in Example 2B, by incubating the cells for 30 minutes with folic acid at 37° C.\n(§2) Radioactivity was determined by liquid scintillation counting."}, "Human Melanoma line A375": {"system": "Human Melanoma line A375", "assay": "Folic acid binding to cell lines", "settings": "30 min at 37° C.", "experimental": "as §1, §2"}, "[1]": {"system": "Murine Lung Carcinoma High Folate Receptor cells", "assay": "Folic acid binding to cell lines", "settings": "Murine Lung Carcinoma High Folate Receptor (printed M109R-HiFR); 30 min at 37° C.", "experimental": "as §1, §2"}, "KB-LoFR cells": {"system": "KB-LoFR cells", "assay": "Folic acid binding to cell lines", "design": "species or system human", "experimental": "as §1, §2"}, "KB-HiFR cells": {"system": "KB-HiFR cells", "assay": "Folic acid binding to cell lines", "design": "species or system human", "experimental": "as §1, §2"}, "M109R-HiFR cells [2]": {"system": "M109R-HiFR cells", "assay": "Folic acid binding to cell lines"}, "M109-LoFR cells": {"system": "M109-LoFR cells", "assay": "Folic acid binding to cell lines", "design": "species or system murine", "settings": "incubation 30 min at 37° C.", "experimental": "as §1, §2"}, "M109R-LoFR cells": {"system": "M109R-LoFR cells", "assay": "Folic acid binding to cell lines", "design": "species or system murine", "settings": "incubation 30 min at 37° C.", "experimental": "as §1, §2"}, "M109R-HiFR cells [3]": {"system": "M109R-HiFR cells", "assay": "In vivo adoptive tumor growth assay, footpad", "design": "species or system BALB/c mice", "excerpt": "To examine the biological activity of drug delivered by the folate-pathway from folate-targeted liposomes in another model, M109R-HiFR cells in vitro were exposed to a test drug. These cells were inoculated into mice footpads. In this way, the growth of cells was tracked along a much longer time span than in in vitro experiments, and the influence of in vivo micro-environmental factors is brought into play. However, unlike therapeutic experiments, this type of in vivo adoptive assay is unaffected by pharmacokinetic and biodistribution factors which complicat the interpretation of results.\nAccordingly, tumor cells in vitro were incubated with free doxorubicin or with liposome-entrapped, non-folate-targeted doxorubicin (DOXIL®) or with folate-targeted, liposome-entrapped doxorubicin in accord with the invention. As described in Example 9, the tumor cells were incubated in the presence of the selected formulation for 1 hour and then 1×10^6 cells were injected into the footpad of a mouse, each treatment formulation being injected into 8 mice.\nAt the end of the study on day 34 after injection of the treated tumor cells, the weight of each tumor-bearing mouse footpad was determined and […] to determine the tumor weight in each mouse footpad.\nFemale 10-week-old BALB/c mice were maintained in a specific pathogen-free facility. M109R-HiFR cells in in vitro suspension (10^7 cells/ml) were exposed to 10^−5M doxorubicin either as free drug, as liposome-entrapped (Doxil®), or as folate-targeted liposome-entrapped […], washed with PBS, and then resuspended at a concentration of 2×10^7 cells. Healthy, syngeneic BALB/c mice were injected into the right hind footpad with 50 μl (10^6 cells). The footpad thickness was measured with calipers once or twice a week for 5 weeks. After 35 days, mice were sacrificed, the final number of tumors recorded, and the control and tumor-inoculated footpads were sectioned at the ankle level and weighed. Tumor weight was estimated as the difference between the weight of the normal and tumor-bearing footpad. The statistical significance of differences in the final incidence of tumors per group was analyzed by contingency tables and the Fisher's exact test."}, "M109R-HiFR cells [4]": {"system": "M109R-HiFR cells", "assay": "Fluorescence tracking of doxorubicin in cells", "format": "cell-based, murine", "method": "As described in Example 5, folate-targeted liposomes containing doxorubicin were prepared and incubated with M109R-HiFR cells. For comparison, M109R-HiFR cells were also incubated with free doxorubicin or with liposomes containing doxorubicin but with no folate targeting ligand.\nIn another study, the ability of the M109R-HiFR cells to retain doxorubicin after treatment for 1 hour with either free doxorubicin or with doxorubicin-loaded folate-targeted liposomes, followed by incubation in drug-free medium for 24 hours was examined.\nM109 HIFR cells were plated, 24 hours prior to each study, on 24 mm cover slips inserted into 35 mm culture dishes. […]\nExamination of the cells was done with inverted Zeiss confocal laser scanning microscope (LSM410) (Carl Zeiss, Jena, Germany). Maximum excitation was done by 543 nm line of the internal He-neon laser; fluorescence emission was observed above 570 nm with long-pass barrier filter LP-570) for rhodamine. For doxorubicin, maximum excitation was done by 488 nm line of internal Argon laser: fluorescence emission was observed above 515 nm with long pass barrier filter LP-515. […]\nM109R-HiFr cells were incubated with free doxorubicin or with doxorubicin entrapped in folate-targeted liposomes at a doxorubicin concentration of 4×10^−5 M. The doxorubicin molecule was tracked using fluorescence."}, "[5]": {"system": "drug-resistance (M109R) cells", "assay": "Cell-associated doxorubicin after exposure", "format": "cell-based, murine", "settings": "Drug-Resistant Cells, 0.2×10^-5 M doxorubicin", "experimental": "(§3) The doxorubicin was administered to the cells in free form and entrapped in folate-targeted liposomes. The cell-associated drug was measured after 1 hour and 4 hours of exposure to doxorubicin."}, "[6]": {"system": "drug-sensitive (M109) cells", "assay": "Cell-associated doxorubicin after exposure", "format": "cell-based, murine", "settings": "0.5×10^-6 M doxorubicin", "experimental": "as §3"}, "M109R cells": {"system": "M109R cells", "assay": "Multidrug-resistance of M109R subline", "format": "cell-based, murine", "excerpt": "(i) Cell lines: M109, a murine lung carcinoma line of BALB/c mice (Marks, T. A. et al., Cancer Treat. Rep., 61:1459-1470 ([…])), and a subline of these cells, M109R displaying multidrug-resistance, (approximately 100 fold increased resistance to doxorubicin) were used in most of the studies. Both cell lines express in vitro low amounts of folic acid receptors and are therefore referred to as M109-LoFR and M109R-LoFR. By culturing these cells in folic acid-free medium for several passages, two sublines expressing a high amount of folic acid receptors were obtained. These sublines were adapted to grow under low folic acid conditions with generation doubling times similar to the lines of origin."}, "tumor cells": {"system": "tumor cells", "assay": "Adoptive tumor growth assay, subcutaneous injection", "format": "in vivo, mice", "settings": "treated tumor cells injected subcutaneously (FIG. 16)", "excerpt": "FIG. 16 is a plot showing the number of palpable tumors after subcutaneous injection of untreated (control, open circles) or in vitro treated tumor cells with free doxorubicin (closed circles), doxorubicin entrapped in non-targeted liposomes (open squares) and doxorubicin entrapped in folate-targeted liposomes (closed triangles)."}, "M109R-HiFR cells [7]": {"system": "M109R-HiFR cells", "assay": "Verapamil blockade of efflux pump and doxorubicin delivery", "settings": "for Intracellular Doxorubicin Content: 0.5×10^-5 M doxorubicin, verapamil 10 μmol where named"}, "[8]": {"settings": "cells exposed in vitro to 10^-5 M doxorubicin, 5 weeks follow-up"}}}
{"smiles": "Nc1nc2ncc(CNc3ccc(C(=O)N[C@@H](CCC(=O)O)C(=O)O)cc3)nc2c(=O)[nH]1", "note": "[folic acid]", "values": [{"measurement": "FOLIC ACID BINDING", "setting": "Normal Human Fibroblasts", "value": "45 ± 3", "unit": "FENTOMOLES/10^4 CELLS"}, {"measurement": "FOLIC ACID BINDING", "setting": "Human Melanoma line A375", "value": "168 ± 33", "unit": "FENTOMOLES/10^4 CELLS"}, {"measurement": "FOLIC ACID BINDING", "setting": "[1]", "value": "678 ± 255", "unit": "FENTOMOLES/10^4 CELLS"}, {"measurement": "increase in folic acid binding", "setting": "KB-LoFR cells; KB-LoFR after 24 hours in folic acid-depleted medium", "value": 15, "unit": "fold"}, {"measurement": "FOLIC ACID BINDING", "setting": "KB-LoFR cells; KB-LoFR after culture in folic acid-depleted medium for 24 h, 30 min at 37° C.", "value": "6725 ± 323", "unit": "FENTOMOLES/10^4 CELLS"}, {"measurement": "difference in folic acid binding capacity", "setting": "KB-HiFR cells; KB-HiFR (highest) compared with M109-LoFR (lowest)", "value": "up to 485 fold"}, {"measurement": "FOLIC ACID BINDING", "setting": "KB-HiFR cells; KB-HiFR, 30 min at 37° C.", "value": "9730 ± 79", "unit": "FENTOMOLES/10^4 CELLS"}, {"measurement": "FOLIC ACID BINDING", "setting": "M109R-HiFR cells [2]; Multidrug-resistant High Folate Receptor M109R-HiFR, 30 min at 37° C.", "value": "2179 ± 430", "unit": "FENTOMOLES/10^4 CELLS"}, {"measurement": "folic acid remaining bound following acid wash", "setting": "M109R-HiFR cells [2]; acid wash pH 3, binding at ~1° C. for 30 min", "value": "2±1", "unit": "%"}, {"measurement": "loss of folic acid receptors shown by binding assay with folic acid", "setting": "M109R-HiFR cells [2]; monolayers pretreated with PI-PLC", "value": 99, "unit": "%"}, {"measurement": "cell-bound radiolabeled folic acid recovered after trypsinization", "setting": "M109R-HiFR cells [2]; trypsin treatment", "value": "91±11", "unit": "%"}, {"measurement": "FOLIC ACID BINDING", "setting": "M109-LoFR cells; M109-LoFR after culture in folic acid-depleted medium for 24 h", "value": "25 ± 13", "unit": "FENTOMOLES/10^4 CELLS"}, {"measurement": "FOLIC ACID BINDING", "setting": "M109-LoFR cells; M109-LoFR", "value": "20 ± 6", "unit": "FENTOMOLES/10^4 CELLS"}, {"measurement": "FOLIC ACID BINDING", "setting": "M109R-LoFR cells", "value": "27 ± 10", "unit": "FENTOMOLES/10^4 CELLS"}]}
{"smiles": "COc1cccc2c1C(=O)c1c(O)c3c(c(O)c1C2=O)C[C@@](O)(C(=O)CO)C[C@@H]3O[C@H]1C[C@H](N)[C@H](O)[C@H](C)O1", "note": "[Free Doxorubicin, doxorubicin]", "values": [{"measurement": "Final Tumor Incidence (%)", "setting": "M109R-HiFR cells [3]; [8]", "value": 42, "unit": "%"}, {"measurement": "Final Tumor Incidence (tumors/mice)", "setting": "M109R-HiFR cells [3]; [8]", "value": "8/19"}, {"measurement": "Median Tumor weight (range)", "setting": "M109R-HiFR cells [3]; footpad tumor weight at end of study", "value": "239 (32-683) mg"}, {"measurement": "footpad thickness", "setting": "M109R-HiFR cells [3]; tumor cells treated in vitro, 10^6 cells injected into footpad (FIG. 15A)", "value": "increase in footpad thickness"}, {"measurement": "doxorubicin fluorescence retained in cells", "setting": "M109R-HiFR cells [4]; 1 hour treatment, then 24 hours in drug-free medium (FIGS. 10C-10D)", "value": "almost completely waned"}, {"measurement": "time at which drug is located in the nucleus", "setting": "M109R-HiFR cells [4]; doxorubicin 4×10^-5 M (FIGS. 9B, 9E)", "value": "≤ 30", "unit": "min"}, {"measurement": "Percent doxorubicin administered remaining in cells", "setting": "[5]; exposure 1 hour", "value": 5.5, "unit": "%"}, {"measurement": "intracellular doxorubicin", "setting": "[5]; exposure 1 hour", "value": 159, "unit": "ng/1.5 × 10^6 cells"}, {"measurement": "Percent doxorubicin administered remaining in cells", "setting": "[5]; exposure 4 hours", "value": 4.2, "unit": "%"}, {"measurement": "intracellular doxorubicin", "setting": "[5]; exposure 4 hours", "value": 122, "unit": "ng/1.5 × 10^6 cells"}, {"measurement": "Percent doxorubicin administered remaining in cells", "setting": "[6]; exposure 1 hour", "value": 8.6, "unit": "%"}, {"measurement": "intracellular doxorubicin", "setting": "[6]; exposure 1 hour", "value": 25, "unit": "ng/1.5 × 10^6 cells"}, {"measurement": "Percent doxorubicin administered remaining in cells", "setting": "[6]; exposure 4 hours", "value": 12.4, "unit": "%"}, {"measurement": "intracellular doxorubicin", "setting": "[6]; exposure 4 hours", "value": 36.1, "unit": "ng/1.5 × 10^6 cells"}, {"measurement": "increased resistance of M109R versus M109", "setting": "M109R cells", "value": "approximately 100 fold"}, {"measurement": "number of palpable tumors", "setting": "tumor cells", "value": "significant number of tumors"}, {"measurement": "cell fluorescence by flow cytometry in presence of verapamil", "setting": "M109R-HiFR cells [7]; FIGS. 11A-11B", "value": "clear increase of cell fluorescence"}, {"measurement": "Intracellular Doxorubicin Content", "setting": "M109R-HiFR cells [7]; exposure time 30 minutes", "value": 24, "unit": "ng/1.5 × 10^6 cells"}, {"measurement": "Intracellular Doxorubicin Content", "setting": "M109R-HiFR cells [7]; exposure time 60 minutes", "value": 42.5, "unit": "ng/1.5 × 10^6 cells"}, {"measurement": "cell retention of doxorubicin in presence versus absence of verapamil", "setting": "M109R-HiFR cells [7]; verapamil 10 μmol", "value": "~4.5", "unit": "fold"}]}
